Some results are limits rather than exact numbers.

One assay concerns the target T1, p110 alpha (Homo sapiens, UniProt P42336).
T1 construct: purchased Upstate Group, Millipore; Dundee, UK
In words: PI3K Isoform Inhibition Assay, p110 alpha (delta/alpha selectivity). The settings on record: ratio of biochemical IC50 values. The procedure:
(§1) PI3K enzymatic activity was assayed by measuring the amount of product phosphatidylinositol […] (PIP3) formed from substrate 4,5 phosphatidylinositol 4,5-phosphate (PIP2) using a fluorescence polarization displacement assay. The decrease in fluorescence polarization of a fluorescent PIP3 probe is measured as it is displaced from a PIP3-binding protein GRP-1 detector by PI3K-catalyzed product. […] The kinase reactions were initiated by the addition of 40 ng/mL p110α/p85α, 300 ng/mL p110β/p85α, 40 ng/mL p110γ, or 40 ng/mL […] (Upstate Group, Millipore; Dundee, UK), and 10 μM PIP2 (Echelon Biosciences) to the wells. […] After 60 minutes of incubation at room temperature to allow equilibration of labeled and unlabeled PIP3 binding, the parallel and perpendicular components of the fluorescence emissions from each sample were measured at an excitation wavelength of 530 nm and an emission wavelength of 590 nm using an Envision fluorescent plate reader with a rhodamine filter (PerkinElmer Life and Analytical Sciences; Wellesley, Mass.). The assay is capable of detecting 0.1-2.0 μM PIP3 product. The IC50 values were obtained by fitting the dose-dependent inhibition data to a 4-parameter equation using Assay Explorer software (MDL, San Ramon, Calif.).
(§2) The Formula I compound was serially diluted in 100% DMSO. The kinase reaction was incubated for 1 h at room temperature, and the reaction was terminated by the addition of PBS. IC50 values were subsequently determined using sigmoidal dose-response curve fit (variable slope).
The same protocol may be used to establish IC50 values for p110α (alpha) PI3K binding. […]

Another assay addresses T2, p110 delta (Homo sapiens, UniProt O00329).
T2 construct: purchased Upstate Group, Millipore; Dundee, UK
Put plainly: PI3K Isoform Inhibition Assay, p110 delta. Format: biochemical. The note with it: PI3K isoform inhibition assay of Example 901. The procedure:
as §1, §2
The four Class I PI 3-kinases are cloned into baculovirus vectors as follows: […]

Assay [1] has as its system production of CD69 by B lymphocytes in human whole blood activated with anti-human IgM. In words: CD69 Whole Blood Assay. Format: cell-based. The note with it: Lymphocyte, anti-IgM stimulated, CD69 positive of CD20 positive cells, 20 hours. The procedure: Human blood is obtained from healthy volunteers, with the following restrictions: 1 week drug-free, non-smokers.
Human whole blood—HWB (100 μl) is added to each well. After mixing the plates are incubated at 37° C., 5% CO2, 100% humidity for 30 minutes. Goat F(ab′)2 anti-human IgM (10 μl of a 500 μg/ml solution, 50 μg/ml final) is added to each well (except the no-stimulus wells) with mixing and the plates are incubated for an additional 20 hours. […] Include induced control, unstained and single stains for compensation adjustments and initial voltage settings. […] Results are initially analyzed by FACS analysis software (Flow Jo).

T2 sequence (O00329 whole entry): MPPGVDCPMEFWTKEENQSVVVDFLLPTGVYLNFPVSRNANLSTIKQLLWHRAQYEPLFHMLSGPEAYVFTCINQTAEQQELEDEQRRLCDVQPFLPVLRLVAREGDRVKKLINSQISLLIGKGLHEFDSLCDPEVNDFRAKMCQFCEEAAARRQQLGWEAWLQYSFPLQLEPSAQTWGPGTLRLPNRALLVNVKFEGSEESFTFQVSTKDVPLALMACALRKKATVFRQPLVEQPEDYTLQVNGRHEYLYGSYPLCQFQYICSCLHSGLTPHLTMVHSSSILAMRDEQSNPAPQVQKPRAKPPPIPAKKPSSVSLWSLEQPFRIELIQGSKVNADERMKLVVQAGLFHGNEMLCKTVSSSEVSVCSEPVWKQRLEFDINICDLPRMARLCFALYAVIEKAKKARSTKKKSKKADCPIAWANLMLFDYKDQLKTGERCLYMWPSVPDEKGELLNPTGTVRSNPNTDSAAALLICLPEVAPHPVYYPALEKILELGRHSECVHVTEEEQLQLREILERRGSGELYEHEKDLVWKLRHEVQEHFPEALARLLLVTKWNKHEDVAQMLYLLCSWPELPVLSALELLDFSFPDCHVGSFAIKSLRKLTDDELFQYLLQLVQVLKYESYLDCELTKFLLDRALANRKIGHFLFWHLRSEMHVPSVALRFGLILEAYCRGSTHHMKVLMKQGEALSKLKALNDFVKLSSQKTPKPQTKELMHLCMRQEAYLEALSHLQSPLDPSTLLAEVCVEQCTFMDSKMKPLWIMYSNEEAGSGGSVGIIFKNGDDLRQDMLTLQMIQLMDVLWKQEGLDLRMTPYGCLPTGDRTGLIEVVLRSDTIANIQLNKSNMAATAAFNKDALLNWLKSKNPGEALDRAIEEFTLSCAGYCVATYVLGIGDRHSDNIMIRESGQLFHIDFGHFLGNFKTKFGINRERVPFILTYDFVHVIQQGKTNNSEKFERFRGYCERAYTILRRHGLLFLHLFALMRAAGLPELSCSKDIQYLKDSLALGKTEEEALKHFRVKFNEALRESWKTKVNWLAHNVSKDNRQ
T2 sequence (P27986 whole entry partner): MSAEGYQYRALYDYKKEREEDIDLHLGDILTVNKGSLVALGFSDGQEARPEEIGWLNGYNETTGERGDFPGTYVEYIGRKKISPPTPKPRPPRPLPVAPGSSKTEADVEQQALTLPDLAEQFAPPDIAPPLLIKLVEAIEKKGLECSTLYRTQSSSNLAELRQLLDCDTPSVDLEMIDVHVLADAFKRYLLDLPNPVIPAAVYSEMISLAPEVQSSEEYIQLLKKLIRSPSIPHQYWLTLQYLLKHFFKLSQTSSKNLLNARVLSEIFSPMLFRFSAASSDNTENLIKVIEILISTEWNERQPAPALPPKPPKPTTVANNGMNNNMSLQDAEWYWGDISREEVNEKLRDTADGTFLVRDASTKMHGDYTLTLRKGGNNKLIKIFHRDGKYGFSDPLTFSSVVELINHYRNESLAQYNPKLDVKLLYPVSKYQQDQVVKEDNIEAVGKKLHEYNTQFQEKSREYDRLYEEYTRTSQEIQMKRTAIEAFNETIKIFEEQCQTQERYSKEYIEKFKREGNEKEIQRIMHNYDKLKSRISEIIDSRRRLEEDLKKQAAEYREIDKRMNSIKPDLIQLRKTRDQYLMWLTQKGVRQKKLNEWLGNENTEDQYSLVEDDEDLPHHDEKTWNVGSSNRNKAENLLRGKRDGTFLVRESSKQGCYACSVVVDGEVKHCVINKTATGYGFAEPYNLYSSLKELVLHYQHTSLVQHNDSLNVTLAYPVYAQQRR
T1 sequence (P42336 whole entry): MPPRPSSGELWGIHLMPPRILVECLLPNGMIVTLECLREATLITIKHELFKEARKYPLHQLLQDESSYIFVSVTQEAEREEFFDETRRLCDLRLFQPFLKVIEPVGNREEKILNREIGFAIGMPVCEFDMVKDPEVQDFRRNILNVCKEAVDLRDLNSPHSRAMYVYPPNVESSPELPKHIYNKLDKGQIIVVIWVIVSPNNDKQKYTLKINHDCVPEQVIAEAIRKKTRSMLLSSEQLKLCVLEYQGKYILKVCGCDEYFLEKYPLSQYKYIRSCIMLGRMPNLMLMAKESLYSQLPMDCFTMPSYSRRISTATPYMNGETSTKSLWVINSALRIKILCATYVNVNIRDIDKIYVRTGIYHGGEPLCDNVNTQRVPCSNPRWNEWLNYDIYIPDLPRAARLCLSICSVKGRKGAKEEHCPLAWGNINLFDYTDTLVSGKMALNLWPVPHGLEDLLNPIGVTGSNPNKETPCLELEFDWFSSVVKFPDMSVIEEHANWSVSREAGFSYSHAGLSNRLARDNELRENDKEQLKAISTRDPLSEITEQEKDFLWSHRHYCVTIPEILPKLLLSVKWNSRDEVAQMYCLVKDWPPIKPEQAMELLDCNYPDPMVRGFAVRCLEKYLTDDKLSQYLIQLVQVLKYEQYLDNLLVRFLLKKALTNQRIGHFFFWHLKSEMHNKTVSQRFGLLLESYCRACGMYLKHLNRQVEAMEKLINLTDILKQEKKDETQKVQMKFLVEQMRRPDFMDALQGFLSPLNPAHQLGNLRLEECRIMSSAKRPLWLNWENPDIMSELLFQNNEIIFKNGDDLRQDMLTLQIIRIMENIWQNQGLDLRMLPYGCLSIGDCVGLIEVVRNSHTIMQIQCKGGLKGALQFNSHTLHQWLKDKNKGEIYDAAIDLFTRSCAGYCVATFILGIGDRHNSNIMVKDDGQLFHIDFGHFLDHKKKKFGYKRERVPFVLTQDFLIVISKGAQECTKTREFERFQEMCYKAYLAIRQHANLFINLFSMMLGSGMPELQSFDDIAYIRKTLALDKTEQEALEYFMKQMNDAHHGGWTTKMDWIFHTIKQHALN
T1 sequence (P27986 whole entry partner): as the sequence (P27986 whole entry partner) above

By IC50 is commonly meant the concentration at which inhibition is half-maximal. The low end stands for higher potency, the high end for lower potency. Take `CC(C)(O)C1CCN(Cc2ccc3nc(-n4c(C5CC5)nc5ccccc54)nc(N4CCOCC4)c3n2)CC1` [Compound 102, 2-(1-((2-(2-cyclopropyl-1H-benzo[d]imidazol-1-yl)-4-morpholinopyrido[3,2-d]pyrimidin-6-yl)methyl)piperidin-4-yl)propan-2-ol]: the “IC50 p110 alpha/IC50 p110 delta” value at p110 alpha was found to be 71. Also, half-maximal inhibition against p110 delta (IC50) required 7.94 nM.

Take `CNc1ncccc1-c1nc(N2CCOCC2)c2nc(CN3CCC(C(C)(C)O)CC3)ccc2n1` [Compound 160, 2-(1-((2-(2-(methylamino)pyridin-3-yl)-4-morpholinopyrido[3,2-d]pyrimidin-6-yl)methyl)piperidin-4-yl)propan-2-ol]: the “IC50 p110 alpha/IC50 p110 delta” value at p110 alpha came to 21. In addition, the IC50 against p110 delta came to 98.3 nM.

Regarding `CC(C)(O)C1CCN(Cc2ccc3nc(-c4cccc5nccn45)nc(N4CCOCC4)c3n2)CC1` [Compound 161, 2-(1-((2-(imidazo[1,2-a]pyridin-5-yl)-4-morpholinopyrido[3,2-d]pyrimidin-6-yl)methyl)piperidin-4-yl)propan-2-ol], at p110 alpha, the “IC50 p110 alpha/IC50 p110 delta” value is 17.8. The half-inhibitory concentration (IC50) against p110 delta was determined as 118 nM.

As to `CCc1nc2ccccc2n1-c1nc(N2CCOCC2)c2nc(CN3CC(N4CCOCC4)C3)ccc2n1` [Compound 131, 4-(1-((2-(2-ethyl-1H-benzo[d]imidazol-1-yl)-4-morpholinopyrido[3,2-d]pyrimidin-6-yl)methyl)azetidin-3-yl)morpholine], the “IC50 p110 alpha/IC50 p110 delta” value on p110 alpha came to 36. The same compound returned an IC50 against p110 delta of 2.23 nM.

For `Fc1ccc2[nH]ccc2c1-c1nc(N2CCOCC2)c2nc(CN3CC(N4CCOCC4)C3)ccc2n1` [Compound 126, 4-(1-((2-(5-fluoro-1H-indol-4-yl)-4-morpholinopyrido[3,2-d]pyrimidin-6-yl)methyl)azetidin-3-yl)morpholine], at p110 alpha, the “IC50 p110 alpha/IC50 p110 delta” value stood at 257. On p110 delta, this compound had an IC50 of 1.14 nM.

With `COC1CN(c2cnc3c(N4CCOCC4)nc(N4CC(OC)C4)nc3c2)C1` [Compound 199, 4-(2,7-bis(3-methoxyazetidin-1-yl)pyrido[3,2-d]pyrimidin-4-yl)morpholine], the “IC50 p110 alpha/IC50 p110 delta” value on p110 alpha was found to be 0.95. Besides, at p110 delta, the IC50 came to 728 nM.

For the compound `CC(C)(O)C1CCN(Cc2ccc3nc(-c4cccc5[nH]ncc45)nc(N4CCOCC4)c3n2)CC1` [Compound 110, 2-(1-((2-(1H-indazol-4-yl)-4-morpholinopyrido[3,2-d]pyrimidin-6-yl)methyl)piperidin-4-yl)propan-2-ol], the “IC50 p110 alpha/IC50 p110 delta” value at p110 alpha is recorded as 21. Also, at p110 delta, inhibition was half-maximal at 6.32 nM (IC50).

In the case of `O=C1CN(C2CN(Cc3ccc4nc(-c5c(F)ccc6[nH]ccc56)nc(N5CCOCC5)c4n3)C2)CCN1` [Compound 127, 4-(1-((2-(5-fluoro-1H-indol-4-yl)-4-morpholinopyrido[3,2-d]pyrimidin-6-yl)methyl)azetidin-3-yl)piperazin-2-one], the “IC50 p110 alpha/IC50 p110 delta” value on p110 alpha came out at 141. The same compound displayed an IC50 against p110 delta of 1.75 nM.

As to `CC(C)(O)C1CCN(Cc2ccc3nc(-n4c(C(F)(F)F)nc5ccccc54)nc(N4CCOCC4)c3n2)CC1` [Compound 156, 2-(1-((4-morpholino-2-(2-(trifluoromethyl)-1H-benzo[d]imidazol-1-yl)pyrido[3,2-d]pyrimidin-6-yl)methyl)piperidin-4-yl)propan-2-ol], the “IC50 p110 alpha/IC50 p110 delta” value at p110 alpha came to 42. At p110 delta, 2.86 nM corresponded to half-maximal inhibition (IC50).

Turning to `CO[C@@H](C)c1nc2ccccc2n1-c1nc(N2CCOCC2)c2nc(CN3CCC(C(C)(C)O)CC3)ccc2n1` [Compound 114, (S)-2-(1-((2-(2-(1-methoxyethyl)-1H-benzo[d]imidazol-1-yl)-4-morpholinopyrido[3,2-d]pyrimidin-6-yl)methyl)piperidin-4-yl)propan-2-ol], the “IC50 p110 alpha/IC50 p110 delta” value on p110 alpha was 53. Also, the results for the IC50 (in assay [1]; on p110 delta) were 12 nM and 1.78 nM, respectively.

As for `COC1CN(c2cnc3c(N4CCOCC4)nc(-c4cnc(N)nc4)nc3c2)C1` [Compound 200, 5-(7-(3-methoxyazetidin-1-yl)-4-morpholinopyrido[3,2-d]pyrimidin-2-yl)pyrimidin-2-amine], the “IC50 p110 alpha/IC50 p110 delta” value at p110 alpha turned out to be 0.97. Also, half-maximal inhibition against p110 delta (IC50) required 716 nM.

As for `CC(C)(O)C1CCN(Cc2ccc3nc(-c4cccc5[nH]ccc45)nc(N4CCOCC4)c3n2)CC1` [Compound 109, 2-(1-((2-(1H-indol-4-yl)-4-morpholinopyrido[3,2-d]pyrimidin-6-yl)methyl)piperidin-4-yl)propan-2-ol], at p110 alpha, the “IC50 p110 alpha/IC50 p110 delta” value is reported as above 350. This compound yielded an IC50 against p110 delta of 2.82 nM.

In the case of `Fc1ccc2[nH]ccc2c1-c1nc(N2CCOCC2)c2nc(CN3CCC(C4COC4)CC3)ccc2n1` [Compound 130, 4-(2-(5-fluoro-1H-indol-4-yl)-6-((4-(oxetan-3-yl)piperidin-1-yl)methyl)pyrido[3,2-d]pyrimidin-4-yl)morpholine], the “IC50 p110 alpha/IC50 p110 delta” value on p110 alpha is 352. The compound further showed an IC50 at p110 delta of 3.12 nM.

In the case of `CO[C@H](C)c1nc2ccccc2n1-c1nc(N2CCOCC2)c2nc(CN3CCC(C(C)(C)O)CC3)ccc2n1` [Compound 115, (R)-2-(1-((2-(2-(1-methoxyethyl)-1H-benzo[d]imidazol-1-yl)-4-morpholinopyrido[3,2-d]pyrimidin-6-yl)methyl)piperidin-4-yl)propan-2-ol], on p110 alpha, the “IC50 p110 alpha/IC50 p110 delta” value was determined as 58. Besides, it took 7.11 nM to reach half-maximal inhibition against p110 delta (IC50).

Take `O=S1(=O)CCN(C2CN(Cc3ccc4nc(-c5c(F)ccc6[nH]ccc56)nc(N5CCOCC5)c4n3)C2)CC1` [Compound 129, 4-(2-(5-fluoro-1H-indol-4-yl)-6-((3-(1,1-dioxo)thiomorpholinoazetidin-1-yl)methyl)pyrido[3,2-d]pyrimidin-4-yl)morpholine]: the “IC50 p110 alpha/IC50 p110 delta” value at p110 alpha was determined as 440. This compound also displayed an IC50 at p110 delta of 0.845 nM.

For `CCc1nc2ccccc2n1-c1nc(N2CCOCC2)c2nc(CN3CC(N4CCNC(=O)C4)C3)ccc2n1` [Compound 134, 4-(1-((2-(2-ethyl-1H-benzo[d]imidazol-1-yl)-4-morpholinopyrido[3,2-d]pyrimidin-6-yl)methyl)azetidin-3-yl)piperazin-2-one], the “IC50 p110 alpha/IC50 p110 delta” value on p110 alpha amounted to 10.9. This compound also displayed an IC50 against p110 delta of 3.56 nM.

Take `CC(C)(C(N)=O)N1CCN(Cc2ccc3nc(-c4ccc(N)nc4)nc(N4CCOCC4)c3n2)CC1` [Compound 124, 2-(4-((2-(6-aminopyridin-3-yl)-4-morpholinopyrido[3,2-d]pyrimidin-6-yl)methyl)piperazin-1-yl)-2-methylpropanamide]: the “IC50 p110 alpha/IC50 p110 delta” value at p110 alpha turned out to be 14. Inhibition against p110 delta was half-maximal at 2.03 nM (IC50).

Regarding `CC(C)c1nc2ccccc2n1-c1nc(N2CCOCC2)c2nc(CN3CCC(C(C)(C)O)CC3)ccc2n1` [Compound 112, 2-(1-((2-(2-isopropyl-1H-benzo[d]imidazol-1-yl)-4-morpholinopyrido[3,2-d]pyrimidin-6-yl)methyl)piperidin-4-yl)propan-2-ol], the “IC50 p110 alpha/IC50 p110 delta” value on p110 alpha turned out to be 44. The half-inhibitory concentration (IC50) in assay [1] came out at 83.8 nM; against p110 delta it was 5.33 nM.

For the compound `CC(C)c1nc2ccccc2n1-c1nc(N2CCOCC2)c2nc(CN3CC(C4CCOCC4)C3)ccc2n1` [Compound 113, 4-(2-(2-isopropyl-1H-benzo[d]imidazol-1-yl)-6-((3-(tetrahydro-2H-pyran-4-yl)azetidin-1-yl)methyl)pyrido[3,2-d]pyrimidin-4-yl)morpholine], the “IC50 p110 alpha/IC50 p110 delta” value at p110 alpha is reported as 28.4. On p110 delta, the IC50 is 8.52 nM.

With `COC(=O)C(C)(C)N1CC(Cc2ccc3nc(-n4c(C(C)C)nc5ccccc54)nc(N4CCOCC4)c3n2)C1` [Compound 117, methyl 2-(3-((2-(2-isopropyl-1H-benzo[d]imidazol-1-yl)-4-morpholinopyrido[3,2-d]pyrimidin-6-yl)methyl)azetidin-1-yl)-2-methylpropanoate], the “IC50 p110 alpha/IC50 p110 delta” value at p110 alpha worked out at 37. Further, at p110 delta, 5.09 nM corresponded to half-maximal inhibition (IC50).

Consider `OCc1ccc2nc(-c3c(F)ccc4[nH]ccc34)nc(N3CCOCC3)c2n1` [Compound 108, (2-(5-fluoro-1H-indol-4-yl)-4-morpholinopyrido[3,2-d]pyrimidin-6-yl)methanol], for which the “IC50 p110 alpha/IC50 p110 delta” value at p110 alpha was 13.5. This compound came in with an IC50 at p110 delta of 26.5 nM.

For the compound `CCn1c(=O)c2ccccc2n1-c1nc(N2CCOCC2)c2nc(CN3CCC(C(C)(C)O)CC3)ccc2n1` [Compound 104, 2-ethyl-1-(6-((4-(2-hydroxypropan-2-yl)piperidin-1-yl)methyl)-4-morpholinopyrido[3,2-d]pyrimidin-2-yl)-1H-indazol-3(2H)-one], on p110 alpha, the “IC50 p110 alpha/IC50 p110 delta” value is 83. The IC50 at p110 delta is 11.8 nM.

These data come from patent US8563540B2, “Pyrido[3,2-d]pyrimidine PI3K delta inhibitor compounds and methods of use” (Genetech, Inc., priority 2010, dated 2013).
